Key:
pterygium = settings: retrospective study of 164 patients, pterygium surgery with associated treatment; cited from earlier work
[1] = topical ocular use; cited from earlier work
IL-8 = test: UVB-mediated induction of IL-8 in pterygium epithelial cells, sandwich immunoassay of supernatants; assay type: cell-based, human; settings: for IL-8 production post-radiation (effect in words) / IL-8 levels: 20 mJ/cm^2 UVB; for IL-8 production post-radiation (effect in words): 10 μM PD98059, 1 μM SB202190, 1 μM SB203580, 1 μM hydrocortisone; for IL-8 levels: supernatant after 48 hrs, UVB alone 166.6±22.5 pg/ml
Experimental: (§1) Pterygium-derived epithelial cells (PEC) were seeded at 1×10^6 cells in 100 mm tissue culture dishes (Corning, N.Y.) or at a density of 1.5×10^5 cells per well in 6-well plates (Nunc, Denmark) and grown in the presence of 10% FBS/EMEM. Once cells reached semi-confluence, the medium was aspirated, cells washed three times with sterile PBS, and left in serum-free medium for 16 hrs as previously described (Di Girolamo N., et al. Prog Retin Eye Res. 2004; 23:195-228), (Di Girolamo N., et al., Invest Opthalmol Vis Sci. 2000; 41:671-679), (Di Girolamo N., et al., Invest Opthalmol Vis Sci. 2002; 43:3430-3437), (Nolan T, et al., Am J Pathol. 2003; 162:567-574), (Di Girolamo., et al., Invest Ophthalmol Vis Sci. 2003; 44:4705-4714). In some experiments, cells were pre-incubated with selective inhibitors of ERK1/2, JNK, and p38 MAPKs (Calbiochem, Calif.). These included 10 μM PD98059, 1 μM SB202190, and 1 μM SB203580, respectively. In addition, 1 μM hydrocortisone (Sigma, St Louis, […].) was added to some cells as a broad-spectrum negative regulator of cytokine production.
(§2) To determine whether surface receptors were involved in transmitting the UVB signal, some cells were pre-incubated for 1 hr with 0.1 μM PD153035 (Calbiochem), an inhibitor of the tyrosine kinase activity of the EGFR or with 0.1 μM AG1295 (Calbiochem) an inhibitor of the tyrosine kinase activity of the PDGFR. While in other experiments, cells were pre-treated with RA (0-0.1 μM; Sigma) or IFN-α (0-15,000 U; PBL Biomedical Laboratories, Piscataway, N.J.). This medium was replaced with PBS and monolayers irradiated with 20 mJ/cm^2 of UVB using FL20SE bulbs (Philips, Sydney, Australia) as previously reported (Di Girolamo N., et al. Prog Retin Eye Res. 2004; 23:195-228), (Di Girolamo N., et al., Invest Opthalmol Vis Sci. 2002; 43:3430-3437), (Nolan T, et al., Am J Pathol. 2003; 162:567-574), (Di Girolamo., et al., Invest Ophthalmol Vis Sci. 2003; 44:4705-4714). UVB light intensity was monitored and calibrated prior to each experiment with the aid of a radiometer IL1400A (International Light, Newburyport, Mass.). After each exposure, PEC were rinsed once with PBS and placed in fresh serum-free medium with the respective compounds, then incubated for a further 48 hrs. Supernatants were collected, cleared of any cell debris by centrifugation, and stored frozen in small aliquots at −70° C. The compounds used in these experiments were non-toxic at all doses tested.
(§3) Human IL-6, IL-8, and VEGF (Quantikine™; R&D Systems, Minneapoli, Minn.) were quantified using sandwich immunoassays. Cytokines in supernatants from control (mock irradiated), or UVB-exposed PEC were captured on antibody-coated 96-well plates, and detection performed precisely as directed by the manufacturer. The optical density of the reaction product was read at the appropriate wavelength using a microplate reader (Spectramax™ Plus, Molecular Devices, Sunnyvale, Calif.).
(§4) Cytokine levels in the culture supernatants were expressed as mean±standard deviation. Difference in cytokine level between control and UV treated cells was assessed by one-way analysis of variance, followed by the Newman-Keuls test for multiple comparisons of treatment groups with the control group. A commercial software package (Prism; GraphPad Software, San Diego, Calif.) was used for analysis.

IL-6 = test: UVB-mediated induction of IL-6 in pterygium epithelial cells, sandwich immunoassay of supernatants; assay type: cell-based, human; settings: for IL-6 production post-radiation (effect in words): 10 μM PD98059, 1 μM SB202190, 1 μM SB203580, 1 μM hydrocortisone
Experimental: as §1, §2, §3, §4

VEGF = test: UVB-mediated induction of VEGF in pterygium epithelial cells, sandwich immunoassay of supernatants; assay type: cell-based, human; settings: for VEGF production post-radiation (effect in words) / VEGF production: 20 mJ/cm^2 UVB; for VEGF production post-radiation (effect in words): 10 μM PD98059, 1 μM SB202190, 1 μM SB203580, 1 μM hydrocortisone; for VEGF production: PEC pre-incubated 1 hr with 0.1 μM inhibitor, supernatant after 48 hrs, UVB alone 166.5±11.0 pg/ml
Experimental: as §1, §2, §3, §4

[2] = PEC, single dose of UVB, several concentrations: RA 0-0.1 μM, IFN-α 0-15,000 U

| Molecule | IL-8 production post-radiation (effect in words) (IL-8; PEC) | IL-6 production post-radiation (effect in words) (IL-6; PEC, 20 mJ/cm^2 UVB) | VEGF production post-radiation (effect in words) (VEGF; PEC) | further results |
| --- | --- | --- | --- | --- |
| CO[C@@]12[C@H](COC(N)=O)C3=C(C(=O)C(C)=C(N)C3=O)N1C[C@@H]1N[C@@H]12 [mitomyacin C] | – | – | – | pterygium regrowth (pterygium): 8.74%; complications [1]: corneoscleral melting, cataract and secondary glaucoma |
| Oc1ccc(-c2nc(-c3ccncc3)c(-c3ccc(F)cc3)[nH]2)cc1 [SB202190] | significantly abrogated | significantly abrogated | only partially, but significantly reduced | – |
| Cc1cc2ncc(-c3ccccc3)nc2cc1C [AG1295] | – | – | – | IL-8 levels (IL-8; PEC pre-incubated 1 hr with 0.1 μM PD153035 (EGFR inhibitor) or 0.1 μM AG1295 (PDGFR inhibitor)): 174 ± 60.3 pg/mL; IL-6 levels (IL-6; PEC pre-incubated 1 hr with 0.1 μM inhibitor, 20 mJ/cm^2 UVB, supernatant after 48 hrs, UVB alone 356.2±32.1): 217 ± 42 pg/mL; VEGF production (VEGF): 132.7 ± 8.0 pg/mL |
| C[C@]12CCC(=O)C=C1CC[C@@H]1[C@@H]2[C@@H](O)C[C@@]2(C)[C@H]1CC[C@]2(O)C(=O)CO [Hydrocortisone, hydrocortisone] | near control levels | near control levels | near control levels | – |
| C[S+]([O-])c1ccc(-c2nc(-c3ccncc3)c(-c3ccc(F)cc3)[nH]2)cc1 (stereo not shown) [SB203580] | significantly abrogated | significantly abrogated | only partially, but significantly reduced | – |
| COc1cccc(-c2cc(=O)c3ccccc3o2)c1N [PD98059] | significantly abrogated | significantly abrogated | only partially, but significantly reduced | – |
| IFN-α | – | – | – | IL-8 protein production (effect in words) (IL-8; [2]): dose-dependently inhibited; IL-6 protein production (effect in words) (IL-6; [2]): dose-dependently inhibited; UVB-mediated induction of VEGF (effect in words) (VEGF; [2]): no significant inhibitory effect |
| COc1cc2ncnc(Nc3cccc(Br)c3)c2cc1OC [PD153035] | – | – | – | IL-8 levels (IL-8; PEC pre-incubated 1 hr with 0.1 μM inhibitor): 74.4 ± 23.6 pg/mL; VEGF production (VEGF): 109.1 ± 1.5 pg/mL |

From patent publication US9050310B2, “Treatment of ocular lesions” (priority 2004, dated 2015)
